The source of these data is patent publication US20230357253A1, “AGONISTS OF STIMULATOR OF INTERFERON GENES STING” (THE SCRIPPS RESEARCH INSTITUTE, priority 2020, published 2023).

Where only a bound is given, the exact number is not on record here.

One experiment has as its target human STING protein (Homo sapiens (Human), UniProt Q86WV6). In words: WT STING binding assay (HTRF, competition with labeled 2′3′cGAMP). The settings on record: recombinant 6×His-tagged human STING, three hours at room temperature. The method, boiled down: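 Competitive HTRF binding: 10-point compound titration incubated 3 h at room temperature with 6×His-tagged human STING and labeled 2′3′cGAMP; FRET read at 665 nm. IC50 by curve fitting; percent inhibition relative to maximal binding of unlabeled 2′3′cGAMP control.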
(In general: Time-resolved FRET reads energy transfer from a long-lived donor to a nearby acceptor.)

In another experiment the test system is THP-1 Lucia ISG cells. In words: ISRE-luciferase assay (ISG-LUC activation). The experiment is classed as cell-based. The settings on record: Homo sapiens, THP1-Lucia ISG, 24 hours, luciferase reporter. The method, boiled down:
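THP-1 Lucia ISG cells at 5×10^5 cells/ml in 2% FBS medium were treated with test article or DMSO vehicle for 24 h. Secreted luciferase was read by luminescence and normalized to vehicle, reported as RLU.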
In general terms: In a reporter assay the amount or activity of a reporter protein is the signal.

Sequence of human STING protein (Q86WV6 whole entry): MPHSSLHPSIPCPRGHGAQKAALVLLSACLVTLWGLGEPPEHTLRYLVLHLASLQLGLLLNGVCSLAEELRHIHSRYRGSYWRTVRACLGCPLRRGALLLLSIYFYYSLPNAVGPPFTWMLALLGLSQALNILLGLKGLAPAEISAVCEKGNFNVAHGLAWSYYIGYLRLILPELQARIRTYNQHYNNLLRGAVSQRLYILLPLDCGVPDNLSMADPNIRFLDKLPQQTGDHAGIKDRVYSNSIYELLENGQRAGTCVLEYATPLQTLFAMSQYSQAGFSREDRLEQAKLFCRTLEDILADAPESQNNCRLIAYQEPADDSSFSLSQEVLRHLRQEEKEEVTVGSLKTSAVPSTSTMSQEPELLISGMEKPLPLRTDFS

For the molecule `O=C(Nc1cc(OCCOc2cc(NC(=O)c3ccc(-n4ccnc4)nn3)c(C(=O)O)cc2F)c(F)cc1C(=O)O)c1ccc(-n2ccnc2)nn1` [Compound 171], the IC50 at human STING protein was 10 to 100 nM. The molecule also had an EC50 with THP-1 Lucia ISG cells of 50 to 500 nM.
For `O=C(Nc1cc(CCCc2cc(NC(=O)c3ccc4nnnn4n3)c(C(=O)O)cc2Cl)ccc1C(=O)O)c1ccc(-n2ccnc2)nn1` [Compound 77] the same measures were 10 to 100 nM and 50 to 500 nM.
For `O=C(Nc1cc(OCCc2cc(NC(=O)c3ccc(-n4ccnc4)nn3)c(C(O)C(=O)O)cc2F)c(F)cc1C(=O)O)c1ccc(-n2ccnc2)nn1` (stereo not shown) [Compound 154], the IC50 on human STING protein lay within 100 to 1000 nM. Moreover, the EC50 in the experiment on THP-1 Lucia ISG cells fell in the range of 500 to 5000 nM.
Taken in the same sequence, the figures for `O=C(Nc1cc(CCOCc2cc(NC(=O)c3ccc(-n4ccnc4)nn3)c(C(=O)O)cc2F)c(F)cc1C(=O)O)c1ccc(-n2ccnc2)nn1` [Compound 149] were 10 to 100 nM and 500 to 5000 nM.
For `O=C(Nc1cc(OCCCOc2cc(NC(=O)c3ccc(-n4ccnc4)nn3)c(C(=O)O)cc2F)ccc1C(=O)O)c1ccc(-n2ccnc2)nn1` [Compound 203] the same measures were 10 to 100 nM and 500 to 5000 nM.
Taken in the same sequence, the figures for `O=C(Nc1cc(CCCCc2cc(NC(=O)c3ccc(-n4ccnc4)nn3)c(C(=O)O)cc2F)c(F)cc1C(=O)O)c1ccc(-n2ccnc2)nn1` [Compound 202] were 10 to 100 nM and 50 to 500 nM.
`O=C(Nc1cc(CCCc2cc(NC(=O)c3ccc(-n4ccnc4)nn3)c(C(=O)O)cc2F)c(F)cc1C(=O)O)c1cccnn1` [Compound 111]: the IC50 at human STING protein was in the range of 10 to 100 nM. This molecule came in with an EC50 with THP-1 Lucia ISG cells of 50 to 500 nM.
With `O=C(Nc1cc(CSCc2cc(NC(=O)c3ccc4nnnn4n3)c(C(=O)O)cc2F)c(F)cc1C(=O)O)c1ccc(-n2ccnc2)nn1` [Compound 184], on human STING protein, the IC50 was 10 to 100 nM. Besides, the EC50 with THP-1 Lucia ISG cells fell in the range of 500 to 5000 nM.
For `O=C(Nc1cc(OCCCCOc2cc(NC(=O)c3ccc(-n4ccnc4)nn3)c(C(=O)O)cc2F)c(F)cc1C(=O)O)c1ccc(-n2ccnc2)nn1` [Compound 17] the same measures were 100 to 1000 nM and 500 to 5000 nM.
For `O=C(Nc1cc(OCCCCOc2cc(NC(=O)c3ccc(-n4ccnc4)nn3)c(C(=O)O)cc2Cl)c(Cl)cc1C(=O)O)c1ccc(-n2ccnc2)nn1` [Compound 50] the same measures were 100 to 1000 nM and 500 to 5000 nM.
Taken in the same sequence, the figures for `O=C(Nc1cc(CCCc2cc(NC(=O)c3ccc4nnnn4n3)c(C(=O)O)cc2F)ccc1C(=O)O)c1ccc(-n2ccnc2)nn1` [Compound 89] were 10 to 100 nM and 50 to 500 nM.
Turning to `O=C(Nc1cc(C[S+]([O-])Cc2cc(NC(=O)c3ccc(-n4ccnc4)nn3)c(C(=O)O)cc2F)c(F)cc1C(=O)O)c1ccc(-n2ccnc2)nn1` [Compound 7, 4,4′-(sulfinylbis(methylene))bis(2-(6-(1H-imidazol-1-yl)pyridazine-3-carboxamido)-5-fluorobenzoic acid)], the IC50 at human STING protein lay within 10 to 100 nM. This molecule also displayed an EC50 in the experiment on THP-1 Lucia ISG cells of 500 to 5000 nM.
Taken in the same sequence, the figures for `COc1cc(C(=O)O)c(NC(=O)c2ccc(-n3ccnc3)nn2)cc1OCCc1cc(NC(=O)c2ccc3nnnn3n2)c(C(=O)O)cc1F` [Compound 110] were 100 to 1000 nM and > 5000 nM.
As to `O=C(Nc1cc(OCCc2cc(NC(=O)c3ccc4nnnn4n3)c(C(=O)O)cc2Cl)ccc1C(=O)O)c1ccc(-n2ccnc2)nn1` [Compound 114], the IC50 on human STING protein lay within 100 to 1000 nM. Besides, the concentration giving a half-maximal response (EC50) with THP-1 Lucia ISG cells lay in the range of 50 to 500 nM.
Take `COc1cc(C(=O)O)c(NC(=O)c2ccc(-n3ccnc3)nn2)cc1OCCc1cc(C(=O)O)c(NC(=O)c2ccc3nnnn3n2)cc1C#N` [Compound 128]: the IC50 at human STING protein lay in the range of 10 to 100 nM. Moreover, the EC50 with THP-1 Lucia ISG cells was in the range of 50 to 500 nM.
As for `COc1cc(NC(=O)c2ccc3nnnn3n2)c(C(=O)O)cc1OCCc1cc(NC(=O)c2ccc(-n3ccnc3)nn2)c(C(=O)O)cc1F` [Compound 147], the IC50 at human STING protein lay within 100 to 1000 nM. Also, in the experiment with THP-1 Lucia ISG cells, the EC50 is > 5000 nM.
Take `COC(=O)c1ccc(CCCc2cc(C(=O)O)c(NC(=O)c3ccc(-n4ccnc4)nn3)cc2F)cc1NC(=O)c1ccc(-n2ccnc2)nn1` [Compound 79]: the IC50 at human STING protein was 100 to 1000 nM. In the experiment on THP-1 Lucia ISG cells, this molecule yielded an EC50 of 50 to 500 nM.

The term IC50 denotes the concentration that inhibits the measured activity by half. What is called EC50 is the concentration giving half of the maximal effect.
